Source: patent US20230027495A1, “METHODS OF TREATING CANCER WITH A COMBINATION OF AN ANTI-PD-1 ANTIBODY AND AN ANTI-TISSUE FACTOR ANTIBODY-DRUG CONJUGATE” (Genmab A/S, priority 2019, published 2023)
“Also recorded” adds a separate entry of the source.

Experiments:
[1] = test system: human peripheral blood mononuclear cells (PBMCs); experiment: T cell activation in CSFE labeled human PBMCs fed drug-killed MDA-MB-231 cells, with or without pembrolizumab; assay type: cell-based; settings: PBMCs fed drug-exposed MDA-MB-231 cells, 48 hours
Source text: Induction of the innate immune response following exposure to cancer cells undergoing ICD sets up secondary T cell activation, which can be enhanced by concomitant pembrolizumab treatment.

[2] = test system: murine tumor cells that stably express human TF; experiment: Immunization of Balb/c mice with drug-killed human TF positive murine tumor cells, then tumor challenge (syngeneic model); assay type: in vivo; settings: mice immunized with drug-killed human TF positive tumor cells
Experimental: Mouse tumor cells are transfected with plasmid constructs encoding human tissue factor (TF) and sgRNA-guided Cas9 nuclease (sgRNA/Cas9) to generate a murine cell line that expresses the human TF. Fluorescence activated cell sorting (FACS) yields a clonal population of murine tumor cells that stably express human TF, these cells are then treated with 1 μg to 5 μg per ml of tisotumab vedotin or 100 nM of MMAE for 4 days. In order to prepare dying cells for immunization, treated murine tumor cells are overlaid atop Histopaque, and centrifuged at 2000 g for 30 minutes. Dead and dying cells are pelleted underneath the Histopaque layer, and viability assessed by trypan blue exclusion. A sample with approximately <20% live cells as measured by trypan blue exclusion is obtained. Flash-frozen tumor cells are prepared by submerging the cells in liquid nitrogen for 10 seconds, followed by immersion in 37° C. water until completely thawed. The liquid nitrogen freeze-thaw process is repeated 5 times. Dead and dying human TF positive tumor cells are resuspended in phosphate buffered saline (PBS) and 2×10^6 cells are injected into the peritoneum of immune-competent Balb/c mice. Seven days later, mice receive a second immunization with dead and dying cells prepared in the same manner.
Fourteen days after initial immunization with the dead and dying human TF positive tumor cells, mice are subcutaneously implanted with 5×10^6 wild-type tumor cells and monitored for tumor growth. […] As these effects occur in the absence of any administered therapeutic agent, the administration of cells killed by tisotumab vedotin or MMAE is sufficient to generate long-lasting protective immune memory against subsequent tumor cell challenge. Protective immune memory is amplified by treating these mice with tisotumab vedotin in combination with an antibody that binds to murine PD-1.

[3] = test system: human peripheral blood mononuclear cells (PBMCs); experiment: Monocyte/macrophage activation in human PBMCs fed drug-killed MDA-MB-231 cells; assay type: cell-based
Source text: FIGS. 7A and 7B is a series of graphs in which Tissue Factor positive MDA-MB-231 cells killed with various agents were fed to human peripheral blood mononuclear cells (PBMCs) and immune activation assessed by increased expression of activations markers on innate CD14+ monocyte/macrophages and induction of chemokine and cytokine production.
Immunogenic cell death, as mediated by MMAE, is regulated cell death that activates adaptive immune responses against antigens from dead and dying tumor cells, and allows for the generation of robust innate immune cell activation and subsequent cytotoxic T cell responses targeted towards specific tumor cell antigens. […] Furthermore, these monocyte/macrophages conditioned by ICD-killed cells promote activation of T cells, as evidenced by production of signature inflammatory cytokines associated with cytotoxic T cell responses.

[4] = test system: MDA-MB-231 xenograft; experiment: MDA-MB-231 xenograft model in humanized NSG mice; assay type: in vivo
Experimental: The in vivo anti-tumor efficacy of tisotumab vedotin in combination with an anti-PD-1 monoclonal antibody was evaluated in NOD.Cg-PrkdC^scid Il2rg^tm1Wj1/SzJ (NSG) immunodeficient mice (The Jackson Laboratory, Stock No. 005557), humanized by engraftment with human CD34^+ hematopoietic stem cells (Jackson Laboratories, Sacramento). Mice were subcutaneously inoculated with 5×10^6 MDA-MB-231 cells (breast adenocarcinoma; American Tissue Culture Collection (ATCC), cat. no. HTB-26), in 100 μL phosphate-buffered saline (PBS). Before inoculation, cells were cultured in DMEM with high glucose and HEPES without L-glutamine (Lonza, cat. no. BE12-709F), 10% (v/v) donor bovine serum with iron New Zealand Origin (Thermo Fisher Scientific, DBSI, cat. no. 10371-029), 2 mM L-glutamine (Lonza, cat. no. BE17-605E), 1 mM Na-pyruvate (Lonza, cat. no. BE13-115E), MEM non-essential amino acids (Life Technologies, cat. no. 11140) and 1% (v/v) penicillin/streptomycin (Lonza, cat. no. DE17-603E), in CellSTACK culture chambers (Corning, cat. no. 3313).
Tumor size was determined by caliper measurement at least two times a week and tumor volume was calculated as 0.52×length×width^2. When tumors reached the size of 100 mm^3 mice were randomized in 7 groups (8 mice per treatment group) based on mouse cohort and tumor size (Table 1). Mice were treated with tisotumab vedotin alone (1 mg/kg or 0.5 mg/kg), intravenously, weekly for a maximum of five treatments, or in combination with an anti-PD-1 antibody (i.e., pembrolizumab, KEYTRUDA®, 50 mg concentrate, Merck & Co., Inc., Kenilworth, N.J. USA) or with anti-PD-1 antibody alone. The first dose of the anti-PD-1 antibody (i.e., pembrolizumab) was 10 mg/kg, followed by 5 mg/kg every five days for a maximum of six treatments. Mice in control groups were administered 1 mg/kg of IgG1 isotype control antibody or IgG1 isotype control antibody conjugated to MMAE intravenously, weekly for a maximum of five treatments (Table 1). The IgG1 isotype control antibody is the b12 antibody which is known to bind to HIV-1 gp120. […]

[5] = test system: Tissue Factor positive cell lines; experiment: Cell death and ATP/HMGB1 release from Tissue Factor positive cell lines; assay type: cell-based; settings: for activity across multiple Tissue Factor positive cell lines: release of ICD related molecules
Source text: Auristatin ADC payloads disrupt the microtubule networks resulting in altered ER localization and function, which ultimately results in ER stress.

[6] = test system: HPAFII (pancreatic carcinoma) and MDA-MB-231 (breast carcinoma) cells; experiment: Western blot of ER stress pathways in HPAFII and MDA-MB-231 cells; assay type: cell-based
Experimental: Induction of cell death and release of ICD danger signals occurs concomitant with initiation of an ER stress response. Two Tissue Factor positive cell lines, HPAFII (pancreatic carcinoma) and MDA-MB-231 (breast cell carcinoma) were exposed to tisotumab vedotin ADC, an Isotype-MMAE ADC (H00-MMAE, IgG1 MMAE), or free MMAE for 18 hours and induction of ER stress monitored by western blot analysis. Phosphorylation of inositol-requiring transmembrane kinase/endonuclease 1 (IRE1) was detected after treatment with tisotumab vedotin ADC or MMAE free drug (FIG. 6). […] The ability for auristatins to prime the immune system to recognize tumor antigens opens the door for a myriad of combinatorial therapeutic options.

[7] = test system: relapsed, recurrent, and/or metastatic cervical cancer; settings: cited from earlier work
[8] = HPAFII and MDA-MB-231 cells, 18 hours
[9] = subjects who received tisotumab vedotin

tisotumab
T cell proliferation (CSFE dilution) [1]: did not elicit these responses
production of IFNγ [1]: did not elicit these responses
production of IL12p70 [1]: did not elicit these responses

tisotumab vedotin: antibody-drug conjugate comprising an antibody that binds to tissue factor (TF), a protease-cleavable linker, and the microtubule disrupting agent MMAE
survival after challenge with wild-type tumor cells [2]: increased survival
tumor growth after challenge with wild-type tumor cells [2]: delayed tumor growth
monocyte/macrophage activation by CD86 expression ([3]; CD14+ monocyte/macrophages, flow cytometry, PBMCs fed killed MDA-MB-231 cells, compared to IgG1-MMAE ADC or tisotumab alone): drove monocyte/macrophage activations
release of innate chemokines ([3]; PBMCs fed killed MDA-MB-231 cells, compared to IgG1-MMAE ADC or tisotumab alone): induced release of innate chemokines including MIP10
chemotactic and inflammatory mediators from monocyte/macrophages ([3]; after uptake of killed Tissue Factor positive cells): elicit strong chemotactic and inflammatory mediators
tumor burden as assessed by tumor volume ([4]; tisotumab vedotin 0.5 mg/kg IV weekly): efficiently reduced tumor burden
tumor burden as assessed by tumor volume ([4]; tisotumab vedotin 1.0 mg/kg IV weekly): efficiently reduced tumor burden
ATP secretion/release ([5]; Tissue Factor positive cells): drove robust A) ATP secretion; also recorded: release the ICD related molecules
HMGB1 release ([5]; Tissue Factor positive cells): HMGB1 release; also recorded: release the ICD related molecules
cell death ([5]; Tissue Factor positive cells): undergo cell death
activity across multiple Tissue Factor positive cell lines [5]: occurs across multiple Tissue Factor positive cell lines
activity across multiple Tissue Factor positive cell lines ([5]; listed as Tisotumab vedotin): active on multiple Tissue Factor positive cell lines
activation of JNK (phosphorylation) [6, 8]: increased phosphorylation
activation of PERK pathway (ATF4 cleavage) [6, 8]: upregulation of ATF4 cleavage
phosphorylation of IRE1 [6, 8]: detected
activation of ER stress pathways (phosphorylation of IRE and JNK, cleavage of ATF4) ([6]; HPAFII or MDA-MB-231 cells, 16 hours): trigger multiple ER stress pathways
T cell proliferation (CSFE dilution) [1]: drove T cell proliferation
production of IFNγ [1]: increased; also recorded: production of T cell specific cytokines
production of IL12p70 [1]: increased; also recorded: production of T cell specific cytokines
efficacy ([7]; 2.0 mg/kg tisotumab vedotin): robust efficacy
safety profile ([7]; 2.0 mg/kg tisotumab vedotin): manageable safety profile
grade of epistaxis cases ([7]; nearly all of the cases): grade 1
grade of the majority of reported peripheral neuropathy cases [7, 9]: grade 1-2
peripheral neuropathy as cause of permanent discontinuation [7, 9]: leading cause of permanently discontinuation
subjects with peripheral neuropathy [7, 9]: approximately 35%
AEs of grade 1-2 conjunctivitis ([7]; tisotumab vedotin alone): frequently reported
clinically relevant perturbations in aPTT or PT ([7]; tisotumab vedotin): have not been observed
epistaxis (bleeding AE) frequency ([7]; tisotumab vedotin): most common reported AE
